Laboratory results taken from patent US9175003B2, “Substituted azoanthracene derivatives and intermediates for preparation thereof” (TransTech Pharma, LLC, priority 2009, dated 2015).

target: human GLP-1 receptor (Homo sapiens (Human), UniProt P43220); conditions: read-out: Mean EC50; cAMP, HTRF detection, 30 min at 37° C., HEK-293 cells expressing cloned human GLP-1 receptor
Sequence (P43220 24-463): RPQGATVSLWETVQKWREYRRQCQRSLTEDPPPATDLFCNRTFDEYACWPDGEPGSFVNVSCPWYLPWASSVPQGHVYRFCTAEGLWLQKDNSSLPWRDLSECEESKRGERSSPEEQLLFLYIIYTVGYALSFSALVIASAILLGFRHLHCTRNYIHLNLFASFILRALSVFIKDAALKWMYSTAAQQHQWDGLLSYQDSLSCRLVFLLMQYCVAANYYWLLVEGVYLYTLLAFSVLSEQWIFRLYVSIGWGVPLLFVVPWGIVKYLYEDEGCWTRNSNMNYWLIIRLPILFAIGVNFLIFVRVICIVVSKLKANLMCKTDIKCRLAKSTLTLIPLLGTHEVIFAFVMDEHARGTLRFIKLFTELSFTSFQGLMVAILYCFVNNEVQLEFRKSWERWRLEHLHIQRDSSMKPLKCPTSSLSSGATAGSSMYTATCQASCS

Row | SMILES | EC50 [nM]
1 | Cc1ccc(C(=O)N2Cc3cc4c(cc3C[C@H]2C(=O)N[C@@H](Cc2ccc(-c3ccnc(C)c3C)cc2)C(=O)O)OC[C@H](c2ccc(OCc3ccc(Cl)c(Cl)c3)cc2)O4)s1 [Example 329, (S)-2-{[(3S,8S)-3-[4-(3,4-dichloro-benzyloxy)-phenyl]-7-(5-methyl-thiophene-2-carbonyl)-2,3,6,7,8,9-hexahydro-[1,4]dioxino[2,3-g]isoquinoline-8-carbonyl]-amino}-3-[4-(2,3-dimethyl-pyridin-4-yl)-phenyl]-propionic acid] | 81
2 | Cc1nccc(-c2ccc(C[C@H](NC(=O)[C@@H]3Cc4cc5c(cc4CN3C(=O)c3nc[nH]n3)O[C@@H](c3ccc(OCc4ccc(Cl)c(Cl)c4)cc3)CO5)C(=O)O)cc2)c1C [Example 332, (S)-2-{[(3S,8S)-3-[4-(3,4-Dichloro-benzyloxy)-phenyl]-7-(1H-[1,2,4]triazole-3-carbonyl)-2,3,6,7,8,9-hexahydro-[1,4]dioxino[2,3-g]isoquinoline-8-carbonyl]-amino}-3-[4-(2,3-dimethyl-pyridin-4-yl)-phenyl]-propionic acid] | 66
3 | Cc1nccc(-c2ccc(C[C@H](NC(=O)[C@@H]3Cc4cc5c(cc4CN3C(=O)C3CNC(=O)N3)O[C@@H](c3ccc(OCc4ccc(Cl)c(Cl)c4)cc3)CO5)C(=O)O)cc2)c1C (stereo partly drawn) [Example 333, (S)-2-{[(3S,8S)-3-[4-(3,4-Dichloro-benzyloxy)-phenyl]-7-(2-oxo-imidazolidine-4-carbonyl)-2,3,6,7,8,9-hexahydro-[1,4]dioxino[2,3-g]isoquinoline-8-carbonyl]-amino}-3-[4-(2,3-dimethyl-pyridin-4-yl)-phenyl]-propionic acid] | 195
4 | Cc1nccc(Oc2ccc(C[C@H](NC(=O)[C@@H]3Cc4cc5c(cc4CN3C(=O)N[C@@H](C)c3ccccc3)O[C@@H](c3ccc(OCc4ccc(Cl)c(Cl)c4)cc3)CO5)C(=O)O)cc2)c1C [Example 335, (S)-2-{[(3S,8S)-3-[4-(3,4-Dichloro-benzyloxy)-phenyl]-7-((S)-1-phenyl-ethylcarbamoyl)-2,3,6,7,8,9-hexahydro-[1,4]dioxino[2,3-g]isoquinoline-8-carbonyl]-amino}-3-[4-(2,3-dimethyl-pyridin-4-yloxy)-phenyl]-propionic acid] | 115
5 | Cc1nccc(Oc2ccc(C[C@H](NC(=O)[C@@H]3Cc4cc5c(cc4CN3C(=O)N[C@H](C)c3ccc(F)cc3)O[C@@H](c3ccc(OCc4ccc(Cl)c(Cl)c4)cc3)CO5)C(=O)O)cc2)c1C [Example 337, (S)-2-({(3S,8S)-3-[4-(3,4-Dichloro-benzyloxy)-phenyl]-7-[(R)-1-(4-fluoro-phenyl)-ethylcarbamoyl]-2,3,6,7,8,9-hexahydro-[1,4]dioxino[2,3-g]isoquinoline-8-carbonyl}-amino)-3-[4-(2,3-dimethyl-pyridin-4-yloxy)-phenyl]-propionic acid] | 145
6 | Cc1ccccc1NC(=O)N1Cc2cc3c(cc2C[C@H]1C(=O)N[C@@H](Cc1ccc(Oc2ccnc(C)c2C)cc1)C(=O)O)OC[C@H](c1ccc(OCc2ccc(Cl)c(Cl)c2)cc1)O3 [Example 338, (S)-2-({(3S,8S)-3-[4-(3,4-Dichloro-benzyloxy)-phenyl]-7-o-tolylcarbamoyl-2,3,6,7,8,9-hexahydro-[1,4]dioxino[2,3-g]isoquinoline-8-carbonyl}-amino)-3-[4-(2,3-dimethyl-pyridin-4-yloxy)-phenyl]-propionic acid] | 377
7 | Cc1nccc(Oc2ccc(C[C@H](NC(=O)[C@@H]3Cc4cc5c(cc4CN3C(=O)NC(C)C)O[C@@H](c3ccc(OCc4ccc(Cl)c(Cl)c4)cc3)CO5)C(=O)O)cc2)c1C [Example 342, (S)-2-({(3S,8S)-3-[4-(3,4-Dichloro-benzyloxy)-phenyl]-7-isopropylcarbamoyl-2,3,6,7,8,9-hexahydro-[1,4]dioxino[2,3-g]isoquinoline-8-carbonyl}-amino)-3-[4-(2,3-dimethyl-pyridin-4-yloxy)-phenyl]-propionic acid] | 204
8 | Cc1nccc(Oc2ccc(C[C@H](NC(=O)[C@@H]3Cc4cc5c(cc4CN3C(=O)NC(C)(C)C)O[C@@H](c3ccc(OCc4ccc(Cl)c(Cl)c4)cc3)CO5)C(=O)O)cc2)c1C [Example 343, (S)-2-({(3S,8S)-7-tert-Butylcarbamoyl-3-[4-(3,4-dichloro-benzyloxy)-phenyl]-2,3,6,7,8,9-hexahydro-[1,4]dioxino[2,3-g]isoquinoline-8-carbonyl}-amino)-3-[4-(2,3-dimethyl-pyridin-4-yloxy)-phenyl]-propionic acid] | 124
9 | Cc1nccc(Oc2ccc(C[C@H](NC(=O)[C@@H]3Cc4cc5c(cc4CN3C(=O)NC3CCCCC3)O[C@@H](c3ccc(OCc4ccc(Cl)c(Cl)c4)cc3)CO5)C(=O)O)cc2)c1C [Example 344, (S)-2-({(3S,8S)-7-Cyclohexylcarbamoyl-3-[4-(3,4-dichloro-benzyloxy)-phenyl]-2,3,6,7,8,9-hexahydro-[1,4]dioxino[2,3-g]isoquinoline-8-carbonyl}-amino)-3-[4-(2,3-dimethyl-pyridin-4-yloxy)-phenyl]-propionic acid] | 271
10 | Cc1cccc(NC(=O)N2Cc3cc4c(cc3C[C@H]2C(=O)N[C@@H](Cc2ccc(Oc3ccnc(C)c3C)cc2)C(=O)O)OC[C@H](c2ccc(OCc3ccc(Cl)c(Cl)c3)cc2)O4)c1 [Example 345, (S)-2-({(3S,8S)-3-[4-(3,4-Dichloro-benzyloxy)-phenyl]-7-m-tolylcarbamoyl-2,3,6,7,8,9-hexahydro-[1,4]dioxino[2,3-g]isoquinoline-8-carbonyl}-amino)-3-[4-(2,3-dimethyl-pyridin-4-yloxy)-phenyl]-propionic acid] | 255
11 | Cc1nccc(Oc2ccc(C[C@H](NC(=O)[C@@H]3Cc4cc5c(cc4CN3C(=O)NC3CCC3)O[C@@H](c3ccc(OCc4ccc(Cl)c(Cl)c4)cc3)CO5)C(=O)O)cc2)c1C [Example 347, (S)-2-({(3S,8S)-7-Cyclobutylcarbamoyl-3-[4-(3,4-dichloro-benzyloxy)-phenyl]-2,3,6,7,8,9-hexahydro-[1,4]dioxino[2,3-g]isoquinoline-8-carbonyl}-amino)-3-[4-(2,3-dimethyl-pyridin-4-yloxy)-phenyl]-propionic acid] | 315
12 | Cc1nccc(Oc2ccc(C[C@H](NC(=O)[C@@H]3Cc4cc5c(cc4CN3C(=O)NC(C)(C)c3ccccc3)O[C@@H](c3ccc(OCc4ccc(Cl)c(Cl)c4)cc3)CO5)C(=O)O)cc2)c1C [Example 348, (S)-2-{[(3S,8S)-3-[4-(3,4-Dichloro-benzyloxy)-phenyl]-7-(1-methyl-1-phenyl-ethylcarbamoyl)-2,3,6,7,8,9-hexahydro-[1,4]dioxino[2,3-g]isoquinoline-8-carbonyl]-amino}-3-[4-(2,3-dimethyl-pyridin-4-yloxy)-phenyl]-propionic acid] | 262
13 | CCC(C)(C)NC(=O)N1Cc2cc3c(cc2C[C@H]1C(=O)N[C@@H](Cc1ccc(Oc2ccnc(C)c2C)cc1)C(=O)O)OC[C@H](c1ccc(OCc2ccc(Cl)c(Cl)c2)cc1)O3 [Example 350, (S)-2-{[(3S,8S)-3-[4-(3,4-Dichloro-benzyloxy)-phenyl]-7-(1,1-dimethyl-propylcarbamoyl)-2,3,6,7,8,9-hexahydro-[1,4]dioxino[2,3-g]isoquinoline-8-carbonyl]-amino}-3-[4-(2,3-dimethyl-pyridin-4-yloxy)-phenyl]-propionic acid] | 212
